We go through ten molecules from patent US20220264878A1, “HERBICIDAL COMPOSITION CONTAINING R-TYPE PYRIDYLOXY CARBOXYLIC ACID DERIVATIVE AND USE THEREOF” (Qingdao Kingagroot Chemical Compound Co., Ltd., priority 2019, published 2022).

Like-named read-outs stand apart in the source and are kept apart here.

One assay has as its system Echinochloa oryzoides. The assay can be described thus: Post-emergence foliage spray, pot culture, fresh weight inhibition (Tables 1-48, 51-98, 101-148; 24 days). The assay is classed as in vivo. The method, then:
(§1) The above weeds were cultivated by a pot culture method. […] Full and uniform weed seeds were selected, soaked in warm water at 25° C. for 6 hours, and germinated in a 28° C. biochemical incubator (darkness). The weed seeds that had just germinatedwere evenly placed on the surface of the soil and then covered with 0.5-1 cm soil according to the sizes of seeds.
(§2) The technical materials were all dissolved in acetone, and diluted with an aqueous solution containing 0.1% emulsifier Tween-80. The dilution is performed as required.
(§3) A ratio of the active ingredient A to the active ingredient B and amounts thereof in each group depends on the characteristics and toxicity of the two agents, as well as the main application purpose of a corresponding formulation. Based on the pre-tests in this study, the dosage of the active ingredient A and B applied alone and in combination were shown in the tables. Water containing the solvent and emulsifier same with the above groups but free of the agents was used as a blank control.
(§4) In the stage of weeds with 3˜4 leaves, the weeds were thinned out to maintain 15 weeds per pot and 45 weeds for each treatment, then continued to be cultured to 5˜6 leaves stage of grassy weeds, 6˜7 leaves stage of broadleaf weeds, and treated.
(§5) The well-cultured weeds were evenly placed on a platform with an area of 0.5 m^2, and a solution of agents was sprayed on the stems and leaves thereof by the 3WP-2000-type walking spray tower at a dosage of 450 kg/ha and at a spray pressure of 0.3 MPa. After all the solution was sprayed, the valve was closed. After 30 seconds, the door of the spray tower was opened, and the nutritional bowl was taken out. Then the valve was opened, and the spray tube was cleaned by spraying 50 ml of water.
(§6) A pot-culture method was employed. For the cultivation of weeds, please refer to the Section 1.1), and “Pesticide guidelines for laboratory bioactivity tests—herbicides”. As to a method for applying agents, please refer to the section 2.3.2), that is, a foliage treatment was employed. After the treatment, the weeds were routinely cultured in a greenhouse.
(§7) A method for investigating absolute number was employed, wherein whole seedlings of survival weeds were cut off with a blade along the soil surface, and the fresh weight of the weeds was weighed with an analytical balance. For dead weeds, the fresh weight thereof was zero.
(§8) Wherein, in the formula, X represented the fresh weight inhibition rate of the active ingredient A in a dosage of P, and Y represented the fresh weight inhibition rate of the active ingredient B in a dosage of Q.

The test system of the next assay is Echinochloa caudate. The description is as above. The assay is classed as in vivo. The method, then: as §1, §2, §3, §4, §5, §6, §7, §8
Setting [1] is: Echinochloa oryzoides, 576 h, B 75 g a.i./ha, read-out: Control effect (%) of B applied alone in corresponding dose.
Where [2] appears, read: Echinochloa oryzoides, 576 h, B 150 g a.i./ha, read-out: Control effect (%) of B applied alone in corresponding dose.
Where [3] appears, read: Echinochloa oryzoides, 576 h, B 300 g a.i./ha, read-out: Control effect (%) of B applied alone in corresponding dose.
[4] abbreviates: Echinochloa oryzoides, 576 h, B 600 g a.i./ha, read-out: Control effect (%) of B applied alone in corresponding dose.
Where [5] appears, read: Echinochloa oryzoides, 576 h, read-out: Control effect (%) of B applied alone in corresponding dose.
The mark [6] stands for this setting: Echinochloa, 576 h, read-out: Control effect (%) of B applied alone in corresponding dose.

In the case of `CCNc1nc(Cl)nc(NC(C)C)n1` [atrazine], the pest or weed control at 75 g/ha in the assay with Echinochloa oryzoides (setting [1]) worked out at 6.7%; in the assay on Echinochloa caudate (Echinochloa, 576 h, atrazine 75 g a.i./ha, read-out: Control effect (%) of B applied alone in corresponding dose), 3.8%. Also, the pest or weed control at 150 g/ha was determined as 21.7% with Echinochloa oryzoides (setting [2]) and 13.5% in the assay with Echinochloa caudate (Echinochloa, 576 h, atrazine 150 g a.i./ha, read-out: Control effect (%) of B applied alone in corresponding dose). Further, the pest or weed control at 300 g/ha stood at 26.4% in the assay with Echinochloa oryzoides (setting [3]) and 24.8% with Echinochloa caudate (Echinochloa, 576 h, atrazine 300 g a.i./ha, read-out: Control effect (%) of B applied alone in corresponding dose). Also, the pest or weed control at 600 g/ha in the assay with Echinochloa oryzoides (setting [4]) is 61.8%; in the assay on Echinochloa caudate (Echinochloa, 576 h, atrazine 600 g a.i./ha, read-out: Control effect (%) of B applied alone in corresponding dose), 66.5%.
Take `CS(=O)(=O)c1ccc(C(=O)C2=C(Sc3ccccc3)C3CCC(C3)C2=O)c(Cl)c1` (centres unmarked) [benzobicylon]: the “Control effect (%) of B applied alone in corresponding dose” value (from here on “Control effect (%) of B applied alone”) was found to be 9.3% in the assay with Echinochloa oryzoides (B 37.5 g a.i./ha); 18.0% in the assay with Echinochloa oryzoides (B 75 g a.i./ha); 46.6% in the assay on Echinochloa oryzoides (B 150 g a.i./ha); 57.3% in the assay with Echinochloa oryzoides (B 300 g a.i./ha); 2.1% in the assay on Echinochloa caudate (Table 86, 37.5 g a.i./ha); 11.7% in the assay on Echinochloa caudate (Table 86, 75 g a.i./ha). The “Control effect (%) of B applied alone” value with Echinochloa caudate (Table 86, 150 g a.i./ha) amounted to 43.3%; in the assay on Echinochloa caudate (Table 86, 300 g a.i./ha), 54.4%.
For the molecule `CCSC(C)CC1CC(=O)C(/C(CC)=N/OC/C=C/Cl)=C(O)C1` (centres unmarked) [clethodim], in the assay on Echinochloa oryzoides (setting [5]), the pest or weed control at 7.5 g/ha was 6.7%, the pest or weed control at 15 g/ha came out at 19%, the pest or weed control at 30 g/ha was 37.8% and the pest or weed control at 60 g/ha turned out to be 62.7%. Further, in the assay on Echinochloa caudate (setting [6]), the pest or weed control at 7.5 g/ha turned out to be 3.4%, the pest or weed control at 15 g/ha was determined as 27%, the pest or weed control at 30 g/ha came to 43.8% and the pest or weed control at 60 g/ha amounted to 67.4%.
As for `CC1(C)CON(Cc2ccccc2Cl)C1=O` [clomazone], the pest or weed control at 45 g/ha in the assay with Echinochloa oryzoides (Echinochloa oryzoides, 576 h, B 45 g a.i./ha, read-out: Control effect (%) of B applied alone in corresponding dose) amounted to 8.6%; with Echinochloa caudate (Echinochloa, 576 h, Table 89, 45 g a.i./ha, read-out: Control effect (%) of B applied alone in corresponding dose), 8.6%. Moreover, the pest or weed control at 90 g/ha with Echinochloa oryzoides (Echinochloa oryzoides, 576 h, B 90 g a.i./ha, read-out: Control effect (%) of B applied alone in corresponding dose) turned out to be 12.9%; in the assay on Echinochloa caudate (Echinochloa, 576 h, Table 89, 90 g a.i./ha, read-out: Control effect (%) of B applied alone in corresponding dose) it was 19%. The pest or weed control at 180 g/ha in the assay on Echinochloa oryzoides (Echinochloa oryzoides, 576 h, B 180 g a.i./ha, read-out: Control effect (%) of B applied alone in corresponding dose) amounted to 50.9%; in the assay on Echinochloa caudate (Echinochloa, 576 h, Table 89, 180 g a.i./ha, read-out: Control effect (%) of B applied alone in corresponding dose) it was 47.7%. The pest or weed control at 360 g/ha with Echinochloa oryzoides (Echinochloa oryzoides, 576 h, B 360 g a.i./ha, read-out: Control effect (%) of B applied alone in corresponding dose) turned out to be 72.1%; in the assay on Echinochloa caudate (Echinochloa, 576 h, Table 89, 360 g a.i./ha, read-out: Control effect (%) of B applied alone in corresponding dose), 70.1%.
Turning to `CCCCOC(=O)[C@@H](C)Oc1ccc(Oc2ccc(C#N)cc2F)cc1` [cyhalofop-butyl], in the assay on Echinochloa oryzoides (setting [5]), the pest or weed control at 9.375 g/ha was 5.5%, the pest or weed control at 18.75 g/ha worked out at 15%, the pest or weed control at 37.5 g/ha came to 32.1% and the pest or weed control at 75 g/ha was determined as 63.5%. For the same molecule, in the assay with Echinochloa caudate (setting [6]), the pest or weed control at 9.375 g/ha came to 5.9%, the pest or weed control at 18.75 g/ha is 11.4%, the pest or weed control at 37.5 g/ha came out at 29.9% and the pest or weed control at 75 g/ha was found to be 69.6%.
Consider `CN(C)C(=O)Nc1ccc(Cl)c(Cl)c1` [diuron], for which, in the assay on Echinochloa oryzoides (setting [5]), the pest or weed control at 75 g/ha was 4.1%, the pest or weed control at 150 g/ha came to 14%, the pest or weed control at 300 g/ha stood at 31.3% and the pest or weed control at 600 g/ha worked out at 56.2%. In the assay on Echinochloa caudate (setting [6]), the pest or weed control at 75 g/ha is 3%, the pest or weed control at 150 g/ha came out at 16.5%, the pest or weed control at 300 g/ha is 28.6% and the pest or weed control at 600 g/ha is 52.2%.
Take `CCCCOC(=O)[C@@H](C)Oc1ccc(Oc2ccc(C(F)(F)F)cn2)cc1` [fluazifop-P-butyl]: the “Control effect (%) of B applied alone” value with Echinochloa oryzoides (B 3.75 g a.i./ha) worked out at 5.5%; in the assay on Echinochloa oryzoides (B 7.5 g a.i./ha) it was 14.2%; in the assay on Echinochloa oryzoides (B 15 g a.i./ha), 32.9%; in the assay on Echinochloa oryzoides (B 30 g a.i./ha), 71.5%; in the assay on Echinochloa caudate (fluazifop-P-butyl 3.75 g a.i./ha), 4.2%; with Echinochloa caudate (fluazifop-P-butyl 7.5 g a.i./ha) it was 13.9%. Further, the results for the “Control effect (%) of B applied alone” value in the assay with Echinochloa caudate (fluazifop-P-butyl 15 g a.i./ha) and in the assay with Echinochloa caudate (fluazifop-P-butyl 30 g a.i./ha) were 38.4% and 74.1%, respectively.
In the case of `COC(=O)[C@@H](C)Oc1ccc(Oc2ncc(C(F)(F)F)cc2Cl)cc1` [haloxyfop-P-methyl], the “Control effect (%) of B applied alone” value in the assay on Echinochloa oryzoides (B 3.75 g a.i./ha) was 7.9%; in the assay with Echinochloa oryzoides (B 7.5 g a.i./ha), 19.0%; with Echinochloa oryzoides (B 15 g a.i./ha), 30.4%; in the assay with Echinochloa oryzoides (B 30 g a.i./ha), 66.9%; in the assay on Echinochloa caudate (haloxyfop-P-methyl 3.75 g a.i./ha), 3.0%; with Echinochloa caudate (haloxyfop-P-methyl 7.5 g a.i./ha), 15.6%. The “Control effect (%) of B applied alone” value with Echinochloa caudate (haloxyfop-P-methyl 15 g a.i./ha) was 40.2%; with Echinochloa caudate (haloxyfop-P-methyl 30 g a.i./ha), 73.4%.
For `CS(=O)(=O)c1cc(C(F)(F)F)ccc1C(=O)c1cnoc1C1CC1` [isoxaflutole], the pest or weed control at 7.5 g/ha in the assay with Echinochloa oryzoides (Echinochloa oryzoides, 576 h, B 7.5 g a.i./ha, read-out: Control effect (%) of B applied alone in corresponding dose) was 8.1%; in the assay with Echinochloa caudate (Echinochloa, 576 h, Table 85, 7.5 g a.i./ha, read-out: Control effect (%) of B applied alone in corresponding dose), 2.1%. In addition, the pest or weed control at 15 g/ha stood at 19.6% with Echinochloa oryzoides (Echinochloa oryzoides, 576 h, B 15 g a.i./ha, read-out: Control effect (%) of B applied alone in corresponding dose) and 14.3% in the assay with Echinochloa caudate (Echinochloa, 576 h, Table 85, 15 g a.i./ha, read-out: Control effect (%) of B applied alone in corresponding dose). Besides, the pest or weed control at 30 g/ha is 50.6% with Echinochloa oryzoides (Echinochloa oryzoides, 576 h, B 30 g a.i./ha, read-out: Control effect (%) of B applied alone in corresponding dose) and 47.9% in the assay on Echinochloa caudate (Echinochloa, 576 h, Table 85, 30 g a.i./ha, read-out: Control effect (%) of B applied alone in corresponding dose). Moreover, the pest or weed control at 60 g/ha in the assay with Echinochloa oryzoides (Echinochloa oryzoides, 576 h, B 60 g a.i./ha, read-out: Control effect (%) of B applied alone in corresponding dose) turned out to be 65.5%; with Echinochloa caudate (Echinochloa, 576 h, Table 85, 60 g a.i./ha, read-out: Control effect (%) of B applied alone in corresponding dose), 63.6%.
Regarding `CCC(=O)Nc1ccc(Cl)c(Cl)c1` [propanil], the pest or weed control at 75 g/ha is 7.6% with Echinochloa oryzoides (setting [1]) and 3.8% with Echinochloa caudate (Echinochloa, 576 h, propanil 75 g a.i./ha, read-out: Control effect (%) of B applied alone in corresponding dose). Also, the pest or weed control at 150 g/ha in the assay on Echinochloa oryzoides (setting [2]) was determined as 19.9%; in the assay with Echinochloa caudate (Echinochloa, 576 h, propanil 150 g a.i./ha, read-out: Control effect (%) of B applied alone in corresponding dose) it was 21.1%. Besides, the pest or weed control at 300 g/ha with Echinochloa oryzoides (setting [3]) was found to be 37%; in the assay with Echinochloa caudate (Echinochloa, 576 h, propanil 300 g a.i./ha, read-out: Control effect (%) of B applied alone in corresponding dose) it was 36.4%. The pest or weed control at 600 g/ha in the assay with Echinochloa oryzoides (setting [4]) was 53.9%; with Echinochloa caudate (Echinochloa, 576 h, propanil 600 g a.i./ha, read-out: Control effect (%) of B applied alone in corresponding dose), 52.5%.
